From US8192962B2, “Processes for detecting toxic substances” (Daikin Industries, Ltd., priority 2001, dated 2012)

Test system: Stress protein genes
Assay: DNA chip mRNA expression in yeast, stress protein genes (Table 6)
Format: cell-based, Saccharomyces cerevisiae S288C
Outline: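 In this screen, yeast in logarithmic growth are challenged for two hours with a toxic substance at a non-lethal inhibitory concentration. Their mRNA, converted to Cy3- or Cy5-labeled cDNA, hybridizes at 65° C. to a chip spanning every yeast gene, and expression is expressed as a ratio to untreated cells.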

N#Cc1c(Cl)c(Cl)c(Cl)c(C#N)c1Cl [(9), 2,4,5,6-tetrachloro-1,3-benzenedicarbonitrile]
The level of expressed mRNA in the presence of chemical substance/The level of expressed mRNA in the absence of chemical substance (yeast gene YAL005C): 3.9
The level of expressed mRNA in the presence of chemical substance/The level of expressed mRNA in the absence of chemical substance (yeast gene YAL015C): 4.0
The level of expressed mRNA in the presence of chemical substance/The level of expressed mRNA in the absence of chemical substance (yeast gene YBL075C): 60.3
The level of expressed mRNA in the presence of chemical substance/The level of expressed mRNA in the absence of chemical substance (yeast gene YBL093C): 0.7
The level of expressed mRNA in the presence of chemical substance/The level of expressed mRNA in the absence of chemical substance (yeast gene YBR044C): 0.8
The level of expressed mRNA in the presence of chemical substance/The level of expressed mRNA in the absence of chemical substance (yeast gene YBR054W): 0.4
The level of expressed mRNA in the presence of chemical substance/The level of expressed mRNA in the absence of chemical substance (yeast gene YBR067C): 1.7
The level of expressed mRNA in the presence of chemical substance/The level of expressed mRNA in the absence of chemical substance (yeast gene YBR072W): 29.4
The level of expressed mRNA in the presence of chemical substance/The level of expressed mRNA in the absence of chemical substance (yeast gene YBR126C): 1.7
The level of expressed mRNA in the presence of chemical substance/The level of expressed mRNA in the absence of chemical substance (yeast gene YBR169C): 7.0
The level of expressed mRNA in the presence of chemical substance/The level of expressed mRNA in the absence of chemical substance (yeast gene YCL035C): 1.9
The level of expressed mRNA in the presence of chemical substance/The level of expressed mRNA in the absence of chemical substance (yeast gene YCR021C): 2.2
The level of expressed mRNA in the presence of chemical substance/The level of expressed mRNA in the absence of chemical substance (yeast gene YCR060W): 0.7
The level of expressed mRNA in the presence of chemical substance/The level of expressed mRNA in the absence of chemical substance (yeast gene YCR083W): 1.8
The level of expressed mRNA in the presence of chemical substance/The level of expressed mRNA in the absence of chemical substance (yeast gene YDL022W): 1.2
The level of expressed mRNA in the presence of chemical substance/The level of expressed mRNA in the absence of chemical substance (yeast gene YDL025C): 3.6
The level of expressed mRNA in the presence of chemical substance/The level of expressed mRNA in the absence of chemical substance (yeast gene YDR033W): 0.3
The level of expressed mRNA in the presence of chemical substance/The level of expressed mRNA in the absence of chemical substance (yeast gene YDR077W): 0.7
The level of expressed mRNA in the presence of chemical substance/The level of expressed mRNA in the absence of chemical substance (yeast gene YDR098C): 3.7
The level of expressed mRNA in the presence of chemical substance/The level of expressed mRNA in the absence of chemical substance (yeast gene YDR155C): 1.3
The level of expressed mRNA in the presence of chemical substance/The level of expressed mRNA in the absence of chemical substance (yeast gene YDR258C): 4.9
The level of expressed mRNA in the presence of chemical substance/The level of expressed mRNA in the absence of chemical substance (yeast gene YDR293C): 1.2
The level of expressed mRNA in the presence of chemical substance/The level of expressed mRNA in the absence of chemical substance (yeast gene YDR436W): 3.5
The level of expressed mRNA in the presence of chemical substance/The level of expressed mRNA in the absence of chemical substance (yeast gene YDR513W): 4.6
The level of expressed mRNA in the presence of chemical substance/The level of expressed mRNA in the absence of chemical substance (yeast gene YDR519W): 0.5
The level of expressed mRNA in the presence of chemical substance/The level of expressed mRNA in the absence of chemical substance (yeast gene YEL030W): 2.3
The level of expressed mRNA in the presence of chemical substance/The level of expressed mRNA in the absence of chemical substance (yeast gene YEL039C): 1.2
The level of expressed mRNA in the presence of chemical substance/The level of expressed mRNA in the absence of chemical substance (yeast gene YER042W): 6.8
The level of expressed mRNA in the presence of chemical substance/The level of expressed mRNA in the absence of chemical substance (yeast gene YER057C): 0.6
The level of expressed mRNA in the presence of chemical substance/The level of expressed mRNA in the absence of chemical substance (yeast gene YER103W): 20.3
The level of expressed mRNA in the presence of chemical substance/The level of expressed mRNA in the absence of chemical substance (yeast gene YER125W): 0.6
The level of expressed mRNA in the presence of chemical substance/The level of expressed mRNA in the absence of chemical substance (yeast gene YFL014W): 13.1
The level of expressed mRNA in the presence of chemical substance/The level of expressed mRNA in the absence of chemical substance (yeast gene YFL016C): 6.4
The level of expressed mRNA in the presence of chemical substance/The level of expressed mRNA in the absence of chemical substance (yeast gene YFL020C): 1.3
The level of expressed mRNA in the presence of chemical substance/The level of expressed mRNA in the absence of chemical substance (yeast gene YFR052W): 3.7
The level of expressed mRNA in the presence of chemical substance/The level of expressed mRNA in the absence of chemical substance (yeast gene YGL073W): 1.9
The level of expressed mRNA in the presence of chemical substance/The level of expressed mRNA in the absence of chemical substance (yeast gene YGL115W): 1.2
The level of expressed mRNA in the presence of chemical substance/The level of expressed mRNA in the absence of chemical substance (yeast gene YGL181W): 2.7
The level of expressed mRNA in the presence of chemical substance/The level of expressed mRNA in the absence of chemical substance (yeast gene YGR088W): 1.5
The level of expressed mRNA in the presence of chemical substance/The level of expressed mRNA in the absence of chemical substance (yeast gene YHL028W): 0.2
The level of expressed mRNA in the presence of chemical substance/The level of expressed mRNA in the absence of chemical substance (yeast gene YHL046C): 1.0
The level of expressed mRNA in the presence of chemical substance/The level of expressed mRNA in the absence of chemical substance (yeast gene YHR030C): 0.6
The level of expressed mRNA in the presence of chemical substance/The level of expressed mRNA in the absence of chemical substance (yeast gene YHR057C): 2.6
The level of expressed mRNA in the presence of chemical substance/The level of expressed mRNA in the absence of chemical substance (yeast gene YHR104W): 4.8
The level of expressed mRNA in the presence of chemical substance/The level of expressed mRNA in the absence of chemical substance (yeast gene YIL011W): 0.0
The level of expressed mRNA in the presence of chemical substance/The level of expressed mRNA in the absence of chemical substance (yeast gene YIL033C): 2.4
The level of expressed mRNA in the presence of chemical substance/The level of expressed mRNA in the absence of chemical substance (yeast gene YIR037W): 6.2
The level of expressed mRNA in the presence of chemical substance/The level of expressed mRNA in the absence of chemical substance (yeast gene YIR038C): 4.6
The level of expressed mRNA in the presence of chemical substance/The level of expressed mRNA in the absence of chemical substance (yeast gene YJL128C): 2.0
The level of expressed mRNA in the presence of chemical substance/The level of expressed mRNA in the absence of chemical substance (yeast gene YJL158C): 0.2
The level of expressed mRNA in the presence of chemical substance/The level of expressed mRNA in the absence of chemical substance (yeast gene YJL159W): 0.5
The level of expressed mRNA in the presence of chemical substance/The level of expressed mRNA in the absence of chemical substance (yeast gene YJL165C): 2.8
The level of expressed mRNA in the presence of chemical substance/The level of expressed mRNA in the absence of chemical substance (yeast gene YJR045C): 3.2
The level of expressed mRNA in the presence of chemical substance/The level of expressed mRNA in the absence of chemical substance (yeast gene YJR090C): 1.9
The level of expressed mRNA in the presence of chemical substance/The level of expressed mRNA in the absence of chemical substance (yeast gene YKL161C): 1.4
The level of expressed mRNA in the presence of chemical substance/The level of expressed mRNA in the absence of chemical substance (yeast gene YKL163W): 0.7
The level of expressed mRNA in the presence of chemical substance/The level of expressed mRNA in the absence of chemical substance (yeast gene YKL164C): 0.4
The level of expressed mRNA in the presence of chemical substance/The level of expressed mRNA in the absence of chemical substance (yeast gene YKL210W): 3.5
The level of expressed mRNA in the presence of chemical substance/The level of expressed mRNA in the absence of chemical substance (yeast gene YKR053C): 0.8
The level of expressed mRNA in the presence of chemical substance/The level of expressed mRNA in the absence of chemical substance (yeast gene YLL024C): 2.8
The level of expressed mRNA in the presence of chemical substance/The level of expressed mRNA in the absence of chemical substance (yeast gene YLL026W): 11.4
The level of expressed mRNA in the presence of chemical substance/The level of expressed mRNA in the absence of chemical substance (yeast gene YLL039C): 3.4
The level of expressed mRNA in the presence of chemical substance/The level of expressed mRNA in the absence of chemical substance (yeast gene YLL060C): 13.0
The level of expressed mRNA in the presence of chemical substance/The level of expressed mRNA in the absence of chemical substance (yeast gene YLR006C): 1.1
The level of expressed mRNA in the presence of chemical substance/The level of expressed mRNA in the absence of chemical substance (yeast gene YLR109W): 2.4
The level of expressed mRNA in the presence of chemical substance/The level of expressed mRNA in the absence of chemical substance (yeast gene YLR259C): 1.8
The level of expressed mRNA in the presence of chemical substance/The level of expressed mRNA in the absence of chemical substance (yeast gene YML007W): 2.1
The level of expressed mRNA in the presence of chemical substance/The level of expressed mRNA in the absence of chemical substance (yeast gene YML070W): 4.5
The level of expressed mRNA in the presence of chemical substance/The level of expressed mRNA in the absence of chemical substance (yeast gene YMR021C): 0.6
The level of expressed mRNA in the presence of chemical substance/The level of expressed mRNA in the absence of chemical substance (yeast gene YMR173W): 2.7
The level of expressed mRNA in the presence of chemical substance/The level of expressed mRNA in the absence of chemical substance (yeast gene YMR186W): 2.6
The level of expressed mRNA in the presence of chemical substance/The level of expressed mRNA in the absence of chemical substance (yeast gene YNL064C): 2.4
The level of expressed mRNA in the presence of chemical substance/The level of expressed mRNA in the absence of chemical substance (yeast gene YNL160W): 3.5
The level of expressed mRNA in the presence of chemical substance/The level of expressed mRNA in the absence of chemical substance (yeast gene YNL241C): 3.4
The level of expressed mRNA in the presence of chemical substance/The level of expressed mRNA in the absence of chemical substance (yeast gene YNR076W): 1.3
The level of expressed mRNA in the presence of chemical substance/The level of expressed mRNA in the absence of chemical substance (yeast gene YOL064C): 8.7
The level of expressed mRNA in the presence of chemical substance/The level of expressed mRNA in the absence of chemical substance (yeast gene YOL161C): 0.7
The level of expressed mRNA in the presence of chemical substance/The level of expressed mRNA in the absence of chemical substance (yeast gene YOR008C): 1.9
The level of expressed mRNA in the presence of chemical substance/The level of expressed mRNA in the absence of chemical substance (yeast gene YOR009W): 0.4
The level of expressed mRNA in the presence of chemical substance/The level of expressed mRNA in the absence of chemical substance (yeast gene YOR010C): 0.6
The level of expressed mRNA in the presence of chemical substance/The level of expressed mRNA in the absence of chemical substance (yeast gene YOR027W): 3.5
The level of expressed mRNA in the presence of chemical substance/The level of expressed mRNA in the absence of chemical substance (yeast gene YOR208W): 1.5
The level of expressed mRNA in the presence of chemical substance/The level of expressed mRNA in the absence of chemical substance (yeast gene YPL059W): 2.0
The level of expressed mRNA in the presence of chemical substance/The level of expressed mRNA in the absence of chemical substance (yeast gene YPL106C): 4.9
The level of expressed mRNA in the presence of chemical substance/The level of expressed mRNA in the absence of chemical substance (yeast gene YPL140C): 0.9
The level of expressed mRNA in the presence of chemical substance/The level of expressed mRNA in the absence of chemical substance (yeast gene YPL194W): 9.6
The level of expressed mRNA in the presence of chemical substance/The level of expressed mRNA in the absence of chemical substance (yeast gene YPL223C): 29.4
The level of expressed mRNA in the presence of chemical substance/The level of expressed mRNA in the absence of chemical substance (yeast gene YPL240C): 3.5
The level of expressed mRNA in the presence of chemical substance/The level of expressed mRNA in the absence of chemical substance (yeast gene YPR005C): 2.8
The level of expressed mRNA in the presence of chemical substance/The level of expressed mRNA in the absence of chemical substance (yeast gene YPR026W): 0.9
